For data set [1], the system named is Jurkat cells. It counts as cell-based. Further details: dose or concentration left out as unconfirmed. The note with it: human. How it is done: ELP-004 (N-MeDCPA) was specifically developed to preclude metabolizing to two toxic metabolites, N—OH-dichloroaniline and 6-OH-dichloroaniline. In vitro assays for toxicity caused by ELP-004 using Jurkat cells show 50% toxicity at […] and <2% toxicity at […]. […] Thus, ELP-004 has high potential for use as a drug to prevent or reduce bone erosion.

The target in data set [2] is dopamine transporter (Homo sapiens, UniProt Q01959). The data set can be described thus: Dopamine transport. How it is done: ELP-004 was evaluated for its ability to cross the blood brain barrier. […] Other medications, such as for example but not limited to bupropion are known to cause problems due to dopamine transporter binding.
Data set [3] in a line: Elimination after administration per os. It counts as in vivo. The note with it: administered per os.
Data set [4] concerns CYP enzymes. The data set can be described thus: Induction of CYP enzymes. It counts as in vitro ADME.
Data set [5] has as its target T1, TRPC3 (Homo sapiens, UniProt Q13507).
T1 construct: expressed in transfected cells
T1 sequence (Q13507 1-921): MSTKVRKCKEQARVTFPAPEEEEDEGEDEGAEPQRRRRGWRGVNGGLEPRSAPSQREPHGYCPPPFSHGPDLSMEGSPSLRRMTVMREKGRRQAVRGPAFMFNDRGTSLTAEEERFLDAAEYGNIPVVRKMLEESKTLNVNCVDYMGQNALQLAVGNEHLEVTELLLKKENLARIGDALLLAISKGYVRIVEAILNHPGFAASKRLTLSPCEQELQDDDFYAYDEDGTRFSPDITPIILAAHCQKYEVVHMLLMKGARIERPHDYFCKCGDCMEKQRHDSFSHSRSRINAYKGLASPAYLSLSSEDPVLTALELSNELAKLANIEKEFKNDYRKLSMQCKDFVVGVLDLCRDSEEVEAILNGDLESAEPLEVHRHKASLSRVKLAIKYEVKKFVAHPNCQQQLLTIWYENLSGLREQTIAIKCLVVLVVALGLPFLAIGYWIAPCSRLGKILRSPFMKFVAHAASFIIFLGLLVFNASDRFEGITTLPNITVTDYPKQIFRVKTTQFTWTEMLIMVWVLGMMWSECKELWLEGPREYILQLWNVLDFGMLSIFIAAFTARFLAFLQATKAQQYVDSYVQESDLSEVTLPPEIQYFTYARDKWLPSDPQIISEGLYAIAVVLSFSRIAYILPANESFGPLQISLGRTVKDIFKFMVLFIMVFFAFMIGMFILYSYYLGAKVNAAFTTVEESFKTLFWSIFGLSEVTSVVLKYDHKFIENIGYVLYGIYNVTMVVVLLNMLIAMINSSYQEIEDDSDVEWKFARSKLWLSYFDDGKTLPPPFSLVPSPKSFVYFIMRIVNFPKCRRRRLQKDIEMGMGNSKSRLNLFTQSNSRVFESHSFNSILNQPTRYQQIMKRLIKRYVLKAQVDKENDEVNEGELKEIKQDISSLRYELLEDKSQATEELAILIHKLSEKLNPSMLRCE
The data set can be described thus: OAG-induced Ca2+ entry in Fura2-loaded HEK293 cells expressing TRPC3. Type of data set: cell-based. The settings on record: ELP-004 0 to 1 mM for 10 minutes before OAG, FIG. 1D, read-out: IC50, inhibition of OAG-induced Ca2+ entry. The method, then:
Inhibition of DAG-mediated TRPC activation. To determine if ELP-004 (N-MeDCPA) inhibits DAG-induced TRPC activation, HEK293 cells expressing TRPC3, TRPC6 or TRPC7 were loaded with Fura2 and incubated with ELP-004 (0 to 1 mM) for 10 minutes prior to challenging with 1-Oleoyl-2-acetyl-sn-glycerol (OAG), a membrane permeable form of diacylglycerol.
Cell Culture—HEK293 cells were grown in DMEM with 4.5 g/L glucose supplemented with 10% FBS and 1% Gentamycin (Full DMEM media; Thermo-Fisher Scientific, Waltham, MA) at 37° C. and 5% CO2. […]
TRPC activity assay—Cells grown on glass coverslips were incubated in a cation-safe buffer (107 mM NaCl, 7.2 mM KCl, 1.2 mM MgCl2, 11.5 mM Glucose, 20 mM HEPES-NaOH, 1 mM CaCl2), pH 7.2) and loaded with Fura2-acetoxymethylester (Fura2-AM; 2 μM) for 30 min at 24° C. as previously described^10,11. […] Ca^2+/Sr^2+ measurements were taken using a Leica DMI 6000B fluorescence microscope controlled by Slidebook software (Intelligent Imaging Innovations, Denver, CO). Fluorescence emission at 505 nm was monitored in response to excitation at alternating 340 nm and 380 nm wavelengths at a frequency of 0.67 Hz; intracellular Ca^2+ measurements are shown at 340/380 nm ratios obtained from groups of 35-45 single cells.

Molecules are shown by their SMILES. Where two headings read alike, the source gives them in different places. Some results are limits rather than exact numbers.

As usually defined, the IC50 is the midpoint of a concentration-inhibition curve.

dopamine transporter, sequence (Q01959 whole entry): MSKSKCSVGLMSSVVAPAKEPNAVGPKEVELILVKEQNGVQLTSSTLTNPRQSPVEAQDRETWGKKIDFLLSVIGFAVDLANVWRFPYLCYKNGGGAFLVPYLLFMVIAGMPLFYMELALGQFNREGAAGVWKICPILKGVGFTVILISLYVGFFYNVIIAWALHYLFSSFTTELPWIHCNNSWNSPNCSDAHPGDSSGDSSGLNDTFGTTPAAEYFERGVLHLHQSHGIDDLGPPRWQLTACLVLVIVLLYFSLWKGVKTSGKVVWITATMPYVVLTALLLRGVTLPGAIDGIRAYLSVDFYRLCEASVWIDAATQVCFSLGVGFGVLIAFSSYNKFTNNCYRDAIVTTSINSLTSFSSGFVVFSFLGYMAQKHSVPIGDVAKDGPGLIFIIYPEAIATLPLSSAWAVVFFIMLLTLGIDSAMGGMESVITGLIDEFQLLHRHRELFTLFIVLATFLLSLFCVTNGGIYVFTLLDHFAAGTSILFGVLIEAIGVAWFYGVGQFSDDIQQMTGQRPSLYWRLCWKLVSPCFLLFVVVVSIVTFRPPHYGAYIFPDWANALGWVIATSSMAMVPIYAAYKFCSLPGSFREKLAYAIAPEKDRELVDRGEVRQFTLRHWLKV

`CCC(=O)N(C)c1ccc(Cl)c(Cl)c1` [ELP-004, N-(3,4-dichlorophenyl)-N-methylpropanamide]: the toxicity in data set [1] (200) is on record as less than 2%; in data set [1] (800) it was 50%. The “problems with dopamine transport” value in data set [2] is “does not cause problems with dopamine transport”. For the same molecule, the “time until essentially eliminated” value in data set [3] was no more than 4 h. In data set [4], the “effect on induction of CYP enzymes” value is given as “no deleterious effect on induction of CYP enzymes”. Further, the IC50 in data set [5] is 1000 to 2000 nM.

These data come from patent US20240058283A1, “THE MODE OF ACTION OF N-MeDCPA ON TRPC CHANNELS” (West Virginia University Board of Governors on Behalf of …, priority 2022, published 2024).
